For this assay, the system named is obesity-induced aged C57BL6J mice. The assay is described as follows: Open field test in obese aged mice given senescent cells killed by test compound, Example 16. Format: in vivo, mouse. Particulars: senescent preadipocytes killed by test compound sc; no administration = 100%.

As for `S=C(N/N=C1\CCCc2cccnc21)N1CCN(c2ccccn2)CC1` [LX-801], the “Open Field Test Time in Center” value is on record as 216.8 (±12.8) %.

(Values after US20260306460A1, “COMPOSITION FOR REMOVING AND INHIBITING SENESCENT CELLS, AND USES THEREOF” (LIFECEUTIX CO., LTD., priority 2023, published 2026).)
